{"source": "paper PMC6078987", "about": "“Molecular insights into antibiotic resistance - how a binding protein traps albicidin” (Nature Communications, 2018)", "key": {"DNA gyrase": {"target": "DNA gyrase", "parameters": "method as in PMID 17074789", "settings": "read-out: half maximal inhibitory concentration (IC50); cited from earlier work"}, "AlbAL": {"target": "AlbAL (Klebsiella oxytoca, UniProt A0A9P0U153)", "sequence (A0A9P0U153 entry or part of it)": "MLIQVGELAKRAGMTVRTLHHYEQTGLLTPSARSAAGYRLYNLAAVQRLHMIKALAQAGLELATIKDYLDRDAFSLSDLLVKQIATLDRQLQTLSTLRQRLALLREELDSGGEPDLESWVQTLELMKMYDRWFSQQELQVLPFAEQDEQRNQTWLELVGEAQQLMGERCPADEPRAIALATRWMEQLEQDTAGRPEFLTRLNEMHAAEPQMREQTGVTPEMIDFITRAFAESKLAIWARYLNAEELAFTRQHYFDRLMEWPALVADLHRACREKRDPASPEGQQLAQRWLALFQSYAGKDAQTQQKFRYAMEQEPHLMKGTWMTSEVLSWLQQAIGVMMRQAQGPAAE", "assay": "CD-detected thermal unfolding of AlbAL", "format": "binding", "settings": "1.5-fold ligand, 20 µM protein; AlbAL alone 71 °C", "method": "For determination of the melting temperature and information on protein-ligand stability, CD measurements were performed on a J-815 CD spectrometer (Jasco, Groß-Umstadt, Germany). Protein samples (2.0 mM for AlbAS and 0.2 mM for AlbAL) were saturated with 1.5-fold albicidin and diluted to a protein concentration of 20 μM in order to ensure a final DMSO content of only 0.05% for AlbAS and 0.5% for AlbAL. A volume of 250 μL of the reaction mixture was transferred into a quartz cuvette with 1 mm path length. Six far-UV spectra were accumulated in a wavelength range of 195–300 nm (203–300 nm for AlbAL) at three different temperatures (10, 21, and 90 °C) with a scanning speed of 50 nm s^−1. For evaluation of the spectra the measured buffer blank (50 mM sodium hydrogen phosphate and 100 mM NaCl, pH 6.8) was subtracted from the averaged spectra. The temperature curves were recorded from 10–90 °C in 0.5 °C min^−1 steps while monitoring the ellipticity at 215 nm (218 nm for ALbAL). […] The melting temperatures of AlbAS, AlbAS–albicidin, AlbAS–compound 5, AlbAS–compound 7, AlbAL, and AlbAL–albicidin were determined by nonlinear regression of the measured data using Eq. (1). […] The Tm was thus determined by fitting the second transition representing the stabilized domain/species. […]"}, "[1]": {"tested_on": "Pseudomonas aeruginosa DSM 117", "parameters": "method as in PMID 17074789, PMID 25504839", "settings": "cited from earlier work"}, "AlbASNTD": {"target": "AlbASNTD (Klebsiella oxytoca, UniProt Q8KRS7)", "assay": "Fluorescence quenching binding assay with AlbASNTD", "settings": "AlbASNTD 100 nM, n constrained to 1", "method": "(§1) Fluorescence quenching measurements were performed by monitoring tryptophan fluorescence of AlbAS (20 nM), AlbAL (20 nM), AlbASNTD, and AlbASCTD (100 nM) on a FluoroMax 2 spectrometer from Horiba (Potsdam, Germany). The excitation wavelength was set to λexc = 280 nm. Emission spectra were recorded from λem = 290–450 nm with a scanning speed of 1 nm s^−1 and an integration time of 1 s. The excitation and emission slit widths were set to 8 and 4 nm, respectively. Proteins were solved in 50 mM sodium phosphate buffer with 150 mM NaCl and 0.01% DMSO at pH 6.8. All measurements were performed twice and the standard deviation is given for the Kd and the Hill factor n. Data evaluation was performed by integration of the emission band (318–410 nm for AlbAS, 316–412 nm for AlbAL, and 319–390 nm for AlbASNTD and AlbASCTD) for every titration step. The area under the curve (AUC) of the buffer blank (buffer with 0.01% DMSO) was subtracted from the measured titration data. The quenching factor was determined by subtraction of AUCs for each titration step from the AUC of the protein in the absence of ligand. For determination of the AlbAS– and AlbAL–albicidin Kd values, the data were fitted to Eq. (2).2 Y=Bmax[L]^n/Kdn+[L]^n where [L], n, and Bmax denote the total ligand concentration, the Hill coefficient, and the maximum binding capacity of the protein, respectively."}, "AlbAS": {"target": "T1, AlbAS (Klebsiella oxytoca, UniProt Q8KRS7)", "T1 sequence (Q8KRS7 1-221)": "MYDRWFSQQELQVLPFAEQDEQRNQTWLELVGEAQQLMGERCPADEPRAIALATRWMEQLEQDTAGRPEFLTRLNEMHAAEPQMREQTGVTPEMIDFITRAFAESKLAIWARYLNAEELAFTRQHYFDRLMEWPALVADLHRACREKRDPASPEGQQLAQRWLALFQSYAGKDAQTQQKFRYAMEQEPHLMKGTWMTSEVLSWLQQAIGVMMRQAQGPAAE", "assay": "Fluorescence quenching binding assay (tryptophan fluorescence) with AlbAS", "method": "as §1\nFor the determination of the Kd for AlbAS–compound 7 the data were fitted to Eq. (3).3 Y=Pt+L+Kd-Pt+L+Kd^2-4PtL/2 where Pt is the total protein concentration."}, "GyrBA59": {"target": "T2, GyrBA59 (Escherichia coli, UniProt P0AES4+P0AES6)", "T2 construct": "combining the full-length GyrB and a C-terminally truncated GyrA segment (59 kDa); a C-terminally truncated GyrA segment (59 kDa); 6x His (TEV-cleavable) (N, cleaved yes); made in house; host or cells: E. coli BL21 DE3, pET-28a(+)", "T2 sequence (P0AES4 whole entry, looked up, other chains not shown, the tested form may be a part)": "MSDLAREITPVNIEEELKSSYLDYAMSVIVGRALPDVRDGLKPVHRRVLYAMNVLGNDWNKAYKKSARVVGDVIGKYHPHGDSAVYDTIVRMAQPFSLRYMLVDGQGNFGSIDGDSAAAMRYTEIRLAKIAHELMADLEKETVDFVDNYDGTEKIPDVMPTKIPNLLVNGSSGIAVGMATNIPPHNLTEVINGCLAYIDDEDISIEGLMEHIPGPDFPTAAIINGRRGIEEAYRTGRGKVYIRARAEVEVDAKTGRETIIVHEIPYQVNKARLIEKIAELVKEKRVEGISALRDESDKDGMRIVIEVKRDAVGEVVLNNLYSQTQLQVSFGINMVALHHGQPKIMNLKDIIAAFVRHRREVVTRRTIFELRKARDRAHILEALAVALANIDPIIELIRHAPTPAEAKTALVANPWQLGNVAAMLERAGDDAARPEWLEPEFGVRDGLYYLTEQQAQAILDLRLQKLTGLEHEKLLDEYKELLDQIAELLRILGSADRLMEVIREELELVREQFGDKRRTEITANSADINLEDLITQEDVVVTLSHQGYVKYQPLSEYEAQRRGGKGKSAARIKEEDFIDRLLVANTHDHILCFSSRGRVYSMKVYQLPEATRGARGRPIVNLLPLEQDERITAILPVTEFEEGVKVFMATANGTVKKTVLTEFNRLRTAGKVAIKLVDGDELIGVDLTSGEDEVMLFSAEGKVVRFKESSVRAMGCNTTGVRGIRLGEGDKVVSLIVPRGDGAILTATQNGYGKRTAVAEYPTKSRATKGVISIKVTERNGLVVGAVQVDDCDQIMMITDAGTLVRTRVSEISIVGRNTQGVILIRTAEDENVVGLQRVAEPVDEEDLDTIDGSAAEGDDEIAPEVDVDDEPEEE", "assay": "DNA cleavage assay", "format": "biochemical, E. coli", "settings": "5 nM – 5120 nM albicidin, pBR322, 1.4 mM ATP", "method": "E. coli DNA gyrase cleavage assays were performed by incubating 250 ng of supercoiled pBR322 plasmid DNA (Inspiralis, Norwich, UK) with 25 nM of GyrBA59 protein in 20 µL reactions containing 35 mM Tris-HCl (pH 8.0), 24 mM KCl, 4 mM MgCl2, 2 mM DTT, 1.8 mM spermidine, 1.4 mM ATP, 6.5% (w/v) glycerol, and 0.1 mg mL^−1 bovine serum albumin in the presence or absence of various concentrations of albicidin (final concentration of 5% dimethyl sulfoxide (DMSO), incubation at 37 °C for 30 min). Linearized DNA was released by further incubation with 0.2% (w/v) SDS and 0.1 mg mL^−1 proteinase K (Promega, Madison, USA) at 37 °C for 30 min. The reaction was stopped by addition of 20 µL of reaction stop buffer (STEB buffer) (40% (w/v) sucrose, 100 mM Tris-HCl (pH 8.0), 10 mM EDTA, and 0.5 mg mL^−1 Bromophenol Blue) and precipitation using 30 µL of chloroform/isoamyl alcohol 24:1 (v:v). Samples were analyzed by electrophoresis in 1% w/v agarose gel containing 0.5 […] followed by photography under ultraviolet illumination."}}, "note": "Values joined by “and” are separate entries in the source; they are usually repeats but may differ in a detail not shown here. Equal entries are not always repeated.", "data": [{"compound": "COc1c(NC(=O)c2ccc(NC(=O)c3ccc(NC(=O)[C@H](CC#N)NC(=O)c4ccc(NC(=O)/C(C)=C/c5ccc(O)cc5)cc4)cc3)c(OC)c2O)ccc(C(=O)O)c1O", "note": "[albicidin]", "values": [{"measurement": "IC50", "setting": "DNA gyrase", "result": 40, "unit": "nM"}, {"measurement": "melting temperature Tm of AlbAL upon ligand binding", "setting": "AlbAL", "result": 74, "unit": "°C"}, {"measurement": "MIC", "setting": "[1]", "result": 1.0, "unit": "µg/mL"}, {"measurement": "Kd", "setting": "AlbASNTD", "result": "3400 ± 200", "unit": "nM"}, {"measurement": "Hill coefficient, n", "setting": "AlbAS; AlbAS 20 nM, fluorescence quenching", "result": "3.0 ± 0.5"}, {"measurement": "Kd", "setting": "AlbAS; AlbAS 20 nM, fluorescence quenching, pH 6.8", "result": "≤ 5.6 nM and 5.6 nM"}, {"measurement": "quenching of AlbAS emission", "setting": "AlbAS; maximal quenching by ligand", "result": 100, "unit": "%"}, {"measurement": "stabilization of DNA cleavage complex (in words)", "setting": "GyrBA59", "result": "stabilizing the cleavage complex"}]}]}
